The test system of the assay is inducible human Hsp70. Nature of the assay: Hsp70 RNA induction by quantitative PCR analysis in Ramos B cells. As to conditions: 500 nM compound, 6 hours, Hsp70 RNA relative to gapdh; for % induction relative to Compound X: Compound X set to 100%; for fold induction at 0.5 µM: Homo sapiens, read-out: fold induction over DMSO. Type of assay: cell-based. Here is the method:
The ability of the compounds of the invention to induce Hsp70 RNA induction by quantitative PCR analysis was examined. Ramos B cells were treated with 500 nM each compound for 6 hours and the RNA was isolated from the cells. Quantitative PCR was performed as described below:
Details for Quantitative PCR are as follows:
500 ng of RNA from each sample was used for cDNA synthesis using iScript cDNA Synthesis Kit (Biorad, Cat#170-8891). 1 ul of cDNA mixture was used with the iQ SYBR Green Supermix (Biorad, Cat#170-8882) to perform quantitative PCR in an iCycler machine (Biorad) using standard protocols. QPCR for each sample/time point was performed in duplicate. The following primers for inducible human Hsp70 and gapdh were used: […]
Ct values were obtained from the iCycler program and used in an equation (2^−ΔΔCT) for determining the amount of target relative to gapdh expression. This compares the relative expression of Hsp70 to the corresponding levels of gapdh in each sample. Duplicate wells were averaged. The amount of N-Malonyl-bis(N′-methyl-N′ thiobenzoylhydrazide) (Compound X) induction of Hsp70 was set to 100% and the percent of induction of Hsp70 by the compounds of the invention was determined relative to 100%.

The results in this text go back to patent publication US8497272B2, “Compounds for treating proliferative disorders” (Synta Pharmaceuticals Corp., priority 2006, dated 2013).

In the case of `CN(NC(=O)CC(=O)NN(C)C(=S)Nc1ccccc1)C(=S)Nc1ccccc1` [Compound 67], the “% induction relative to Compound X” value is 0.09% and the fold induction at 0.5 µM is 0.22.
Take `CN(NC(=O)CC(=O)NN(C)C(=S)NC1CC1)C(=S)NC1CC1` [Compound 69]: the “% induction relative to Compound X” value came to 0.12% and the fold induction at 0.5 µM worked out at 0.3.
The like results for `COC(=S)N(C)NC(=O)CC(=O)NN(C)C(=S)OC` [Compound 70] were, in that order, 0.57% and 1.41.
With `CN(NC(=O)CC(=O)NN(C)c1nccs1)c1nccs1` [Compound 71], the “% induction relative to Compound X” value was 0.33% and the fold induction at 0.5 µM worked out at 0.87.
For `CN(NC(=O)c1cc(=O)cc(C(=O)NN(C)C(=S)c2ccccc2)o1)C(=S)c1ccccc1` [Compound 74, N′2,N′6-dimethyl-4-oxo-N′2,N′6-di(phenylcarbonothioyl)-4H-pyran-2,6-dicarbohydrazide] the same measures were 0.22% and 0.59.
